# Results from patent US8771665B2 (Cocrystal Discovery, Inc., priority 2010, dated 2014).
# Biological target: T1, HCV1b NS5B polymerase delta 21 (Hepatitis C virus genotype 1b, UniProt P26663)
# T1 construct: purified HCV1b NS5B polymerase delta 21
# Assay: RNA-Dependent RNA HCV NS5B (Polymerase) Assay and IC50 Determination
# Format: biochemical
# How it was run: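 Purified NS5B Δ21 (0.6 μg) with polyA:U16 template, 10 μM UTP plus α-32P UTP in Tris-HCl pH 7.5, 5 mM MgCl2, 0.5% Triton X-100, 60 min at 23°C with varied compound concentrations. Radiolabelled RNA captured on filters, quantified by phosphorimaging; IC50 from triplicate assays.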
# T1 sequence (P26663 2420-2989): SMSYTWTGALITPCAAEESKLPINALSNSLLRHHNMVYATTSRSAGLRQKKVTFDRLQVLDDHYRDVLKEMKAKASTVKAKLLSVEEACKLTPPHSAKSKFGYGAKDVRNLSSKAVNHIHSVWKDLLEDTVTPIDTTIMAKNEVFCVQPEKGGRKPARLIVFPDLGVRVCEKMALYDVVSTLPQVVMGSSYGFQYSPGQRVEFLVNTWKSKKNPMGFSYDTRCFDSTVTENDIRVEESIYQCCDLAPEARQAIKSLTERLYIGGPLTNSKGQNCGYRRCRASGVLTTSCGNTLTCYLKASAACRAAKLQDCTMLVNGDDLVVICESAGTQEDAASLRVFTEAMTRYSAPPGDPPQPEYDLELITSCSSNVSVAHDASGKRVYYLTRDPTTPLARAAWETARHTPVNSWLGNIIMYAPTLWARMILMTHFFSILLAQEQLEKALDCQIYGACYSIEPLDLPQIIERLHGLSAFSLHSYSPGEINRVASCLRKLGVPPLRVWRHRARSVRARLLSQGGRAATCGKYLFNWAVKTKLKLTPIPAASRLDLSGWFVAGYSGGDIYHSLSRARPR
row,SMILES,IC50 [µM]
1,"CC1CCC(C2=C(c3cc(-c4ccccc4)sc3C(=O)O)CCN(C(=O)Cc3ccncc3)C2)CC1 (centres unmarked) [Example 093, 3-[5-(4-Methyl-cyclohexyl)-1-(2-pyridin-4-yl-acetyl)-1,2,3,6-tetrahydro-pyridin-4-yl]-5-phenyl-thiophene-2-carboxylic acid]",> 10
2,"CC1CCC(C2=C(c3cc(-c4ccccc4)sc3C(=O)O)CCN(C(=O)c3ccncc3)C2)CC1 (centres unmarked) [Example 094, 3-[5-(4-Methyl-cyclohexyl)-1-(pyridine-4-carbonyl)-1,2,3,6-tetrahydro-pyridin-4-yl]-5-phenyl-thiophene-2-carboxylic acid]",3 to 10
3,"CC1CCC(C2=C(c3cc(-c4ccccc4)sc3C(=O)O)CCN(Cc3cn(C)c4ccccc34)C2)CC1 (centres unmarked) [Example 095, 3-[5-(4-Methyl-cyclohexyl)-1-(1-methyl-1H-indol-3-ylmethyl)-1,2,3,6-tetrahydro-pyridin-4-yl]-5-phenyl-thiophene-2-carboxylic acid]",3 to 10
4,"CC1CCC(C2=C(c3cc(-c4ccccc4)sc3C(=O)O)CCN(C(=O)Cc3ccc4ccccc4c3)C2)CC1 (centres unmarked) [Example 096, 3-[5-(4-Methyl-cyclohexyl)-1-(2-naphthalen-2-yl-acetyl)-1,2,3,6-tetrahydro-pyridin-4-yl]-5-phenyl-thiophene-2-carboxylic acid]",> 10
5,"CC1CCC(C2=C(c3cc(-c4ccccc4)sc3C(=O)O)CCN(C(=O)Cc3cccc4ccccc34)C2)CC1 (centres unmarked) [Example 097, 3-[5-(4-Methyl-cyclohexyl)-1-(2-naphthalen-1-yl-acetyl)-1,2,3,6-tetrahydro-pyridin-4-yl]-5-phenyl-thiophene-2-carboxylic acid]",> 10
6,"CC1CCC(C2=C(c3cc(-c4ccccc4)sc3C(=O)O)CCN(C(=O)c3cn(C)c4ccccc34)C2)CC1 (centres unmarked) [Example 098, 3-[5-(4-Methyl-cyclohexyl)-1-(1-methyl-1H-indole-3-carbonyl)-1,2,3,6-tetrahydro-pyridin-4-yl]-5-phenyl-thiophene-2-carboxylic acid]",> 10
7,"CC1CCC(C2=C(c3cc(-c4ccccc4)sc3C(=O)O)CCN(C(=O)c3nn(C)c4ccccc34)C2)CC1 (centres unmarked) [Example 099, 3-[5-(4-Methyl-cyclohexyl)-1-(1-methyl-1H-indazole-3-carbonyl)-1,2,3,6-tetrahydro-pyridin-4-yl]-5-phenyl-thiophene-2-carboxylic acid]",3 to 10
8,"CCOC(=O)c1sc(-c2ccc(NC(=O)c3cscn3)cc2)cc1C1=C(C2CCC(C)CC2)CN(C)CC1 (centres unmarked) [Example 100, 3-[1-Methyl-5-(4-methyl-cyclohexyl)-1,2,3,6-tetrahydro-pyridin-4-yl]-5-{4-[(thiazole-4-carbonyl)-amino]-phenyl}-thiophene-2-carboxylic acid ethyl ester]",> 10
9,"CC1CCC(C2=C(c3cc(-c4ccc(NC(=O)c5cscn5)cc4)sc3C(=O)OCOC(=O)C(C)(C)C)CCN(C)C2)CC1 (centres unmarked) [Example 101, 3-[1-Methyl-5-(4-methyl-cyclohexyl)-1,2,3,6-tetrahydro-pyridin-4-yl]-5-{4-[(thiazole-4-carbonyl)-amino]-phenyl}-thiophene-2-carboxylic acid 2,2-dimethyl-propionyloxymethyl ester]",> 10
10,"CC(=O)OCOC(=O)c1sc(-c2ccc(NC(=O)c3cscn3)cc2)cc1C1=C(C2CCC(C)CC2)CN(C)CC1 (centres unmarked) [Example 102, 3-[1-Methyl-5-(4-methyl-cyclohexyl)-1,2,3,6-tetrahydro-pyridin-4-yl]-5-{4-[(thiazole-4-carbonyl)-amino]-phenyl}-thiophene-2-carboxylic acid acetoxymethyl ester]",> 10
11,"CC1CCC(C2=C(c3cc(-c4ccc(NC(=O)c5cscn5)cc4)sc3C(=O)OCCN(C)C)CCN(C)C2)CC1 (centres unmarked) [Example 103, 3-[1-Methyl-5-(4-methyl-cyclohexyl)-1,2,3,6-tetrahydro-pyridin-4-yl]-5-{4-[(thiazole-4-carbonyl)-amino]-phenyl}-thiophene-2-carboxylic acid 2-dimethylamino-ethyl ester]",< 3
